This note sets out measurements from patent US20150094354A1, “METHOD FOR TREATING CELL PROLIFERATIVE DISORDER BY INHIBITING C1GALT1 EXPRESSION” (National Taiwan University, priority 2013, published 2015).

Holding throughout (type): cell-based, human
One data set deals with C1GALT1. Kind of data set: Knockdown of C1GALT1 expression confirmed by Western blotting / Q-PCR. The note with it: siRNA. The source says:
According to an embodiment of the present invention, in the experiment in vitro, two siRNA oligonucleotides against C1GALT1, 5′-[…] GG-3′ (SEQ ID NO: 1) and 5′-[…]-3′ (SEQ ID NO: 2), used as the C1GALT1 inhibition substance and a negative control siRNA of medium GC are synthesized by Invitrogen company.
According to another embodiment of the present invention, in the experiment in vivo, the pLKO/C1GALT1-shRNA plasmid containing the sequence, 5′-CCCAGCCTAATG TTCTTCATA-3′(SEQ ID NO: 13), against C1GALT1 is used as the C1GALT1 inhibition substance. The pLKO/C1GALT1-shRNA plasmid and non-targeting pLKO plasmids (as a negative control) are purchased from National RNAi Core Facility (Academia Sinica, Taipei, Taiwan). The short hairpin RNA (shRNA, 20 nM) plasmids are transfected with Lipofectamine® 2000 and selected with 500 ng/mL of puromycin for 10 days. […] Subsequently, 7×10^6 of hepatocellular carcinoma cells containing the pLKO/C1GALT1-shRNA plasmid and the non-targeting pLKO plasmid are subcutaneously injected into severe combined immunodeficient (SCID) mice (n=4 for each group). Tumor volumes are monitored for […]. Excised tumors are weighed and lysed for Western blotting and immunohistochemistry.
Equal amounts of protein samples are mixed with 5× sample buffer and boiled for 5 minutes, separated on SDS-polyacrylamide gels, and then transferred to PVDF membrane. The membranes are blocked in 5% BSA for 1 hour at room temperature, and incubated with primary antibodies overnight at 4° C. Anti-phosphotyrosine (4G10) antibody (Millipore, Billerica, Mass.), antibodies against C1GALT1, GAPDH, IGF-IR, MET pY 1234/5, IGF-IR pY1135/1136, p-AKT, p-ERK1/2, and ERK1/2 antibody (BD Pharmingen, San Jose, Calif.) are used. The blots are then incubated with secondary antibody conjugated with horseradish peroxidase and immunoreacted bands are detected by ECL reagents and exposed on x-ray film.
Total RNA is isolated using TRIzol reagent (Invitrogen) according to the manufacturer's protocol. Two micrograms of total RNA is used in reverse transcription reaction using the Superscript III First-Strand cDNA Synthesis Kit (Invitrogen). The cDNA is subjected to quantitative real-time RT-PCR (Q-PCR). Quantitative PCR System Mx3000P (Stratagene, La Jolla, Calif.) is used for quantitative real-time RT-PCR. Reactions are performed in a 20 μl volume with 2 μl cDNA, 400 nM of sense and anti-sense primers, and 10 μl Brilliant®SYBR®Green Q-PCR Master Mix (Stratagene). Primer sets are designed as the following: Primers for C1GALT1 are 5′-[…]-3′ (SEQ ID NO: 5) and 5′-[…]-3′(SEQ ID NO: 6). Primers for GAPDH are 5 ‘-[…]-3’ (SEQ ID NO: 8) and 5′-[…]-3′ (SEQ ID NO: 7). The relative quantity of gene expression normalized to GAPDH is analyzed using MxPro Software (Stratagene). […]
On the technique in general: Immunoblotting shows a protein as a band on a membrane.

Data set [1] has as its system O-glycans on glycoproteins. Kind of data set: Western blotting with biotinylated VVA of glycoproteins in hepatocellular carcinoma cells. As to the method: Vicia villosa agglutinin (VVA)- and peanut agglutinin (PNA) lectin-conjugated agarose beads, fluorescein isothiocyanate (FITC)-, and biotinylated VVA were purchased from Vector Laboratories. Recombinant EGF, HGF, IGF-I, and protein deglycosylation kits were purchased from Sigma. Protein deglycosylation is carried out using an Enzymatic Protein Deglycosylation Kit (Sigma). Briefly, cell lysates are treated with neuraminidase or PNGase F at 37° C. for 1 hour. For lectin blotting, […] of cell lysate is separated by an 8% SDS-PAGE, transferred to polyvinylidene difluoride membrane (Millipore), and blotted with biotinylated VVA (1:10,000). For lectin pull-down assay, cell lysates (0.3 mg) are incubated with or without deglycosylation enzymes and then applied to VVA- or PNA-conjugated agarose beads at 4° C. for 16 hours. The pulled down proteins are analyzed by Western blotting.
HA22T and PLC5 cells express high levels of C1GALT1, while Sk-Hep1 and HCC36 cells express low levels of C1GALT1, as shown in FIG. 6B. […] Compared with pcDNA3.1 empty plasmid (mock), overexpression of C1GALT1 in Sk-Hep1 and HCC36 cells transfected with C1GALT1/pcDNA3.1 plasmid (C1GALT1) is shown in FIG. 7B Immunofluorescence microscopy further confirmed the knockdown and overexpression of C1GALT1 in hepatocellular carcinoma cells and its subcellular localization in the Golgi apparatus (not shown). […] Proteins with evident changes in VVA binding are indicated by arrows. p140 changes in all tested cell lines are indicated by red arrows.

The subject of a further data set is HA22T cells. In words: Cell-cycle analysis by propidium iodide flow cytometry. The note with it: HA22T (not shown). As to the method: (§1) Cells (4×10^4) are seeded in each well of 6-well plates with DMEM containing 10% FBS. Viable cells are analyzed by Trypan blue exclusion assay at 0, 24, 48, and 72 hours. Cell proliferation is evaluated by immunostaining with anti-Ki67 antibody (1:1000; Vector Laboratories). For cell-cycle analysis, 1×10^6 cells are stained with propidium iodide (Sigma) for 30 minutes. The percentages of cells in G1, S, and G2M phases are analyzed by flow cytometry (Becton Dickinson).
(§2) FIGS. 10A-10B are schematic diagrams illustrating the effects of C1GALT1 on cell proliferation of hepatocellular carcinoma cells in vitro in accordance with an embodiment of the present invention. Cells were immunofluorescently stained for Ki67 and Ki67-positive cells were counted under a microscope. Results are presented as means±SD from three independent experiments. *, P<0.05; **, P<0.01.
A general note: Flow cytometry measures light scatter and fluorescence of single cells or particles in a stream.

A further data set has as its system PLC5 cells. The data set is described as above. The note with it: PLC5 (not shown). As to the method:
as §1, §2

On to “C1GALT1 si-1: siRNA oligonucleotide against C1GALT1, presumably SEQ ID NO: 1, UUAGUAUACGUUCAGGUAAGGUAGG (chemistry not given here)”, for which the C1GALT1 expression result in the data set on C1GALT1 (HA22T cells) and with C1GALT1 (PLC5 cells) was “knockdown of C1GALT1” in each case. Further, the “binding of VVA to glycoproteins” value in data set [1] (HA22T cells) and in data set [1] (PLC5 cells) was “enhanced” in each case. Further, the cell cycle result with HA22T cells and with PLC5 cells was “G1-phase arrest” each time.
In the case of “C1GALT1 si-2: siRNA oligonucleotide against C1GALT1, presumably SEQ ID NO: 2, UUAUGUUGGCUAGAAUCUGCAUUGA (chemistry not given here)”, the C1GALT1 expression entry with C1GALT1 (HA22T cells) and with C1GALT1 (PLC5 cells) was “knockdown of C1GALT1” in each case. Besides, the “binding of VVA to glycoproteins” value in data set [1] (HA22T cells) and in data set [1] (PLC5 cells) was “enhanced” throughout. Also, the cell cycle entry in the data set with HA22T cells and with PLC5 cells was “G1-phase arrest” in each case.
